According to US20260060960A1, “GAMMA-SECRETASE INHIBITORS FOR USE IN THE TREATMENT OF INHERITED EPIDERMOLYSIS BULLOSA” (OSPEDALE PEDIATRICO BAMBINO GESU', priority 2022, published 2026):

How the values were obtained:
Type in all cases: cell-based, human
[1] = tested on: primary fibroblasts from RDEB patients (RDEB-FBs); assay: Collagen deposition analysis (Sircol assay); details: 96 h
Description: The amount of collagens deposited into the extracellular matrix (ECM) was measured by using the Sirius red staining-based Sircol assay (Biocolor, Carrickfergus, Northern Ireland-UK). Briefly, two RDEB-FB strains were seeded into 12-well plates (55.000 cells/well), and growth for two days until they reached about 80-90% confluence. Then, cells were treated for 96 h with PF-03084014 (5 μM), DAPT (20 μM) or the corresponding amount of vehicle DMSO in serum-free media. GSI stimulation was performed in the presence or in the absence of TGF-β1 (2 ng/mL) as inducer of collagen synthesis. In order to further improve collagen deposition, RDEB-FB cultures were daily supplemented with 50 μg/mL of L-ascorbic acid (Merck) and 100 μg/mL of dextran sulfate 500 kDa (Merck). ECM collagens were solubilized by scraping culture wells with a solution of 0.5 M acid acetic containing pepsin at 0.1 mg/mL (Pepsin […].4.23.1, product code: […], Merck) and incubated overnight at 4° C. in agitation. The day after, ECM lysates were neutralized with 100 μL of Acid Neutralizing Reagent (Biocolor), and concentrated by overnight incubation in ice-water mix, in the presence of 200 μL of Isolation & Concentration Reagent (Biocolor). Sample absorbance values were measured by BioTek Synergy H1 microplate reader (Agilent, Santa Clara, CA, USA) at 560 nm and analyzed through the GEN5TM software v. 3.04 (Agilent).

[2] = tested on: TGF-β1 secreted by RDEB-FBs; assay: TGF-β1 ELISA on conditioned media of RDEB fibroblasts; details: 20 μM, 48 h; for acid-activated TGF-β1 in conditioned media: three RDEB-FB strains, mean±SD
Description: Human TGF-β1 Quantikine ELISA Kit (R&D Systems, Minneapolis, MN, USA) was used to measure the amount of TGF-β1 (pg/mL) in serum-free conditioned media of three RDEB-FB strains, treated or not with PF-03084014 and DAPT at 1 or 20 μM for 48 h. DMSO-treated cells were used as controls. TGF-β1 Quantikine ELISA Kit was performed as per manufacturer's instructions. Samples were assayed in duplicate for each experimental condition. In order to detect both the latent precursor and the active form without latency-associated peptide cell supernatants were subjected to acid activation prior to be analyzed. Absorbance values were recorded at 455 nm with an Infinite F50 microplate reader (Tecan, Männedorf, Switzerland) and analyzed by employing the GraphPad Prism 8.2 version (GraphPad Software Inc., San Diego, CA, USA).

[3] = tested on: primary fibroblasts from RDEB patients (RDEB-FBs); assay: MTT proliferation assay on RDEB fibroblasts; details: 20 μM
Description: Proliferation rate was assessed by 3-(4,5-dimethyl-2-thiazolyl)-2,5-diphenyl-2H-tetrazolium bromide (MTT) assay, following the manufacturer's protocol. In brief, three different strains of RDEB-FBs were seeded at the density of 4×10^3 cells into 96-well plates. The day after, RDEB-FBs growing in DMEM containing 10% FBS were treated with 20 μM DAPT or PF-03084014 for 24 h or 48 h. Cells treated with the vehicle DMSO were used as controls. At the selected time points, medium was replaced with MTT solution and plates were incubated in a dry incubator at 37° C. for 3 h. Thereafter, cells were lysed in DMSO to dissolve formazan crystals and absorbance values were recorded at 560 nm with an Infinite F50 microplate reader (Tecan, Mannedorf, Switzerland). Values recorded 24 h after cell seeding, before GSI stimulation (TO) were used as reference.

[4] = tested on: primary fibroblast strains from healthy controls (NH-FBs); assay: MTT viability/proliferation assay on primary fibroblasts from healthy controls
Excerpt: 3-(4,5-dimethyl-2-thiazolyl)-2,5-diphenyl-2H-tetrazolium bromide (MTT) assay showing the impact of DAPT and PF-03084014 treatment on viability and proliferation rate of three primary fibroblast strains from healthy controls (NH-FBs). Absorbance values (Abs) were converted in percentage by using the following formula: AbsDAPT or PF-03084014×100/AbsREFERENCE WELLS. Data are presented as mean±standard deviation (SD) of at least eight technical replicates per condition. Cells treated with the vehicle DMSO (Panel A), and cells analyzed 24 h after seeding (T0) (Panel B) were considered as reference wells. NH-FBs were growth in DMEM medium containing 10% fetal bovine serum (FBS). […] Based on the results, it was chosen to use GSIs at 20 μM (black arrows) as it was the minimal drug concentration inducing a reduction of cell proliferation after 24 h of treatment. (Panel C) Immunoblotting analysis showing the protein levels of the cleaved and biologically active form of NOTCH1 receptor (N1-ICD, NOTCH1 intracellular domain) in nuclear extracts of primary fibroblasts from RDEB patients (RDEB-FBs, n=2) treated for 24 h with DAPT and PF-03084014 at different doses, ranging from 0.1 to 20 μM. Cells treated with the vehicle dimethyl sulfoxide (DMSO) were used as control. The reduced nuclear localization of N1-ICD indicates Notch pathway inhibition. […] Lamin B1 (LMNB1) and glyceraldehyde-3-phosphate dehydrogenase (GAPDH) served as loading controls for the nuclear and cytoplasmic protein fractions, respectively. **P-value <0.01, ***P<0.001.
GSIs halt the processing of Notch receptor, and, in turn, play a role as indirect inhibitors of Notch signaling cascade. Following their reconstitution at 10 mM in dimethyl sulfoxide (DMSO), GSI aliquots were stored at −20° C. until use, avoiding freeze-thaw cycles. GSI treatment was performed in DMEM containing 10% FBS, unless otherwise specified. According to previous reports, RDEB-FBs were serum-starved overnight in DMEM containing BSA prior to be treated with GSIs. Cells treated with the vehicle DMSO were used as controls. GSIs were used at different concentrations ranging from 1 to 20 μM depending on the assay. […]
Proliferation rate was assessed by 3-(4,5-dimethyl-2-thiazolyl)-2,5-diphenyl-2H-tetrazolium bromide (MTT) assay, following the manufacturer's protocol. […] Thereafter, cells were lysed in DMSO to dissolve formazan crystals and absorbance values were recorded at 560 nm with an Infinite F50 microplate reader (Tecan, Mannedorf, Switzerland). Values recorded 24 h after cell seeding, before GSI stimulation (TO) were used as reference. […]

Structure (SMILES)	collagen deposition into the ECM ([1]; 20 μM, with or without TGF-β1)	acid-activated TGF-β1 in conditioned media [2]	cell proliferation (MTT) ([3]; 24 and 48 h)	proliferation rate (MTT) ([4]; 20 and 40 μM, 48 h, vs DMSO)	reduction of pepsin-soluble collagens deposited into the ECM ([1]; 5 μM, absence or presence of TGF-β1, vs untreated)	reduction of TGF-β1 released in culture media ([2]; vs cells treated with DMSO and DAPT)	proliferation rate (MTT) ([3]; 48 h, vs untreated cells)	cell viability (MTT) compared to cells before GSI treatment (T0) ([4]; 40 μM)	fibroblast proliferation / cytotoxicity (MTT) ([4]; 5-20 μM)	effects on proliferation rate (MTT) ([4]; 20 and 40 μM at 24 h, 5 and 10 μM at 48 h, vs DMSO)
C[C@H](NC(=O)Cc1cc(F)cc(F)c1)C(=O)N[C@H](C(=O)OC(C)(C)C)c1ccccc1 [DAPT, N—[N-(3,5-difluorophenacetyl)-L-alanyl]-S-phenylglycine t-butyl ester]	DAPT-mediated reduction of collagen deposition in each experimental condition, though the difference was moderate	250.4 ± 97.3 pg/mL	didn't display variations in cell proliferation	slight but statistically significant reduction of proliferation rate	–	–	–	–	–	–
CCC[C@H](N[C@H]1CCc2cc(F)cc(F)c2C1)C(=O)Nc1cn(C(C)(C)CNCC(C)(C)C)cn1 [PF-03084014, (S)-2-((S)-5,7-difluoro-1,2,3,4-tetrahydronaphthalen-3-ylamino)-N-(1-(2-methyl-1-(neopentylamino)propan-2-yl)-1H-imidazol-4-yl)pentanamide]	–	99.6 ± 40.8 pg/mL	–	–	50%	up to 60%	statistically significant reduction of RDEB-FB proliferation rate	reduction of cell viability	affected fibroblast proliferation in a time- and dose-dependent manner, in the absence of overt cytotoxicity	observed after 24 h of treatment, and became more evident after 48 h of treatment, even at low doses (5 and 10 μM)
